Assay results taken from patent publication US20250367129A1, “Lipid Compounds and Uses Thereof” (Pfizer Inc., priority 2022, published 2025).

Columns and labels:
[1] = LNP size and polydispersity index by Malvern Zetasizer dynamic light scattering (CA HA modFlu mRNA LNPs); assay type: physicochemical; conditions: DLS; for Size (nm): LNP of the ionizable lipid:cholesterol:DSPC:ALC-0159 about 46.3:42.7:9.4:1.6, N:P about 6:1, CA HA modFlu mRNA; for PDI: LNP with CA HA modFlu mRNA
Protocol: (§1) Lipid nanoparticles were prepared and tested according to the general procedures described in U.S. Pat. No. 9,737,619 (PCT Pub. No. WO2015/199952) and U.S. Pat. No. 10,166,298 (PCT Pub. No. WO 2017/075531) and PCT Pub. No. WO2020/146805. The novel ionizable lipids of the invention, cholesterol, distearoylphosphatidylcholine (DSPC) and ALC-0159 2-[(polyethylene glycol)-2000]-N,N ditetradecylacetamide were solubilized in ethanol at a molar ratio of about 46.3:42.7:9.4:1.6. Lipid nanoparticles were made by mixing the lipids containing organic phase with the mRNA containing aqueous phase using an N:P ratio of about 6:1. The mRNA was diluted in buffer. Syringe pumps were used to mix the ethanolic lipid solution with the mRNA aqueous solution. The ethanol was then removed, and the external buffer replaced with another buffer (e.g., Tris) by dialysis. Finally, the lipid nanoparticles were filtered.
(§2) Total RNA concentration and encapsulation efficiency was assessed using the RiboGreen RNA quantitation assay. RNA integrity pre and post formulation was monitored by Agilent Fragment Analyzer capillary gel electrophoresis. Malvern Zetasizer dynamic light scattering (DLS) was used to determine LNP size and polydispersity index (PDI). In vitro expression of the novel ionizable lipid nanoparticles was assessed in HEK293F and Hela cells similar to described in Example 72. Nuclear count and identification of cells stained positive for gene of interest was done on an Opera Phenix high content imager (PerkinElmer, USA).

[2] = Encapsulation efficiency, RiboGreen RNA quantitation assay (CA HA modFlu mRNA LNPs); assay type: physicochemical; conditions: LNP with CA HA modFlu mRNA
Protocol: as §1, §2

HEK293F cells = assay: In vitro expression of novel ionizable lipid nanoparticles, high content imaging (CA HA modFlu mRNA); assay type: cell-based; conditions: LNP with CA HA modFlu mRNA
Protocol: (§3) Plated Hek293T or Hela cells were dosed with lipid nanoparticles in a total volume of 40 μl cell culture media and incubated overnight at 37° C. and 5% CO2. After fixation with 4% paraformaldehyde in PBS cells were washed in PBS containing 0.3% Triton-X100 and 3% BSA (w/v), followed by nuclear staining with Hoechst and antibody staining for the encoded gene of interest. Nuclear count and identification of cells stained positive for gene of interest was done on an Opera Phenix high content imager (PerkinElmer, USA).
as §1, §2

Hela cells = assay: as above; assay type: cell-based; conditions: LNP with CA HA modFlu mRNA
Protocol: as §3, §1, §2

With CCCCCCCCC(CCCCCC)C(=O)OCC(COC(=O)C(CCCCCC)CCCCCCCC)N1CCC2(CCN(CCCCCO)CC2)CC1 (centres unmarked) [Example 5, 2-(9-(5-hydroxypentyl)-3,9-diazaspiro[5.5]undecan-3-yl)propane-1,3-diyl bis(2-hexyldecanoate)] the “Size (nm)” value [1] was 136 nm, the PDI [1] was 0.040 and the EE % [2] was 100%. The “EC50 Hek293F (ng/well)” value (HEK293F cells) was 1.32 ng/well and the “EC50 Hela (ng/well)” value (Hela cells) was 4.3 ng/well.

In the case of CCCCCCCCC(CCCCCC)C(=O)OCC(COC(=O)C(CCCCCC)CCCCCCCC)N1CCC2(CCN(CCCCO)C2)CC1 (centres unmarked) [Example 6, 2-(2-(4-hydroxybutyl)-2,8-diazaspiro[4.5]decan-8-yl)propane-1,3-diyl bis(2-hexyldecanoate)], the “Size (nm)” value [1] is reported as 133 nm, the PDI [1] is reported as 0.080 and the EE % [2] is reported as 100%. For the same compound, the “EC50 Hek293F (ng/well)” value (HEK293F cells) was 0.42 ng/well and the “EC50 Hela (ng/well)” value (Hela cells) was 1.1 ng/well.

With CCCCCCCCCCCCCCCC(=O)OCC(COC(=O)C(CCCCCC)CCCCCCCC)N1CCC2(CCN(CCCCO)CC2)CC1 (centres unmarked) [Example 7, 3-((2-hexyldecanoyl)oxy)-2-(9-(4-hydroxybutyl)-3,9-diazaspiro[5.5]undecan-3-yl)propyl palmitate] the “Size (nm)” value [1] was 84 nm, the PDI [1] was 0.130 and the EE % [2] was 99%. The “EC50 Hek293F (ng/well)” value (HEK293F cells) was 20.4 ng/well and the “EC50 Hela (ng/well)” value (Hela cells) was 2.0 ng/well.

With CCCCCCCC(CCCCCCC)C(=O)OCC(COC(=O)C(CCCCCCC)CCCCCCC)N1CCC2(CCN(CCCNc3c(NC)c(=O)c3=O)CC2)CC1 [Example 8, 2-(9-(3-((2-(methylamino)-3,4-dioxocyclobut-1-en-1-yl)amino)propyl)-3,9-diazaspiro[5.5]undecan-3-yl)propane-1,3-diyl bis(2-heptylnonanoate)] the “Size (nm)” value [1] was 68 nm, the PDI [1] was 0.101 and the EE % [2] was 100%. For the same compound, the “EC50 Hek293F (ng/well)” value (HEK293F cells) was 4.1 ng/well and the “EC50 Hela (ng/well)” value (Hela cells) was 2.5 ng/well.

In the case of CCCCCCCCC(CCCCCC)C(=O)OCC(COC(=O)C(CCCCCC)CCCCCCCC)N1CCC2(CCN(CCCNC(=O)C3(C)CC3)CC2)CC1 (centres unmarked) [Example 9, 2-(9-(3-(1-methylcyclopropane-1-carboxamido)propyl)-3,9-diazaspiro[5.5]undecan-3-yl)propane-1,3-diyl bis(2-hexyldecanoate)], the “Size (nm)” value [1] is reported as 96 nm, the PDI [1] is reported as 0.070 and the EE % [2] is reported as 99%. For the same compound, the “EC50 Hek293F (ng/well)” value (HEK293F cells) was 2.6 ng/well and the “EC50 Hela (ng/well)” value (Hela cells) was 4.2 ng/well.

In the case of CCCCCCCC(CCCCCCC)C(=O)OCC(COC(=O)C(CCCCCCC)CCCCCCC)N1CCC2(CCN(CCCO)CC2)CC1 [Example 10, 2-(9-(3-hydroxypropyl)-3,9-diazaspiro[5.5]undecan-3-yl)propane-1,3-diyl bis(2-heptylnonanoate)], the “Size (nm)” value [1] is reported as 109 nm, the PDI [1] is reported as 0.054 and the EE % [2] is reported as 99%. The “EC50 Hek293F (ng/well)” value (HEK293F cells) was 1.3 ng/well and the “EC50 Hela (ng/well)” value (Hela cells) was 1.5 ng/well.

In the case of CCCCCCCCC(CCCCCC)C(=O)OCC(COC(=O)C(CCCCCC)CCCCCCCC)N1CCC2(CCN(CCCNS(=O)(=O)CC)CC2)CC1 (centres unmarked) [Example 11, 2-(9-(3-(ethylsulfonamido)propyl)-3,9-diazaspiro[5.5]undecan-3-yl)propane-1,3-diyl bis(2-hexyldecanoate)], the “Size (nm)” value [1] is reported as 121 nm, the PDI [1] is reported as 0.080 and the EE % [2] is reported as 99%. For the same compound, the “EC50 Hek293F (ng/well)” value (HEK293F cells) was 3.7 ng/well and the “EC50 Hela (ng/well)” value (Hela cells) was 13.8 ng/well.

For CCCCCCCC(CCCCCCC)C(=O)OCC(COC(=O)C(CCCCCCC)CCCCCCC)N1CCC2(CCN(CCCCO)C2)C1 (centres unmarked) [Example 12, 2-(7-(4-hydroxybutyl)-2,7-diazaspiro[4.4]nonan-2-yl)propane-1,3-diyl bis(2-heptylnonanoate)], the “Size (nm)” value [1] was 105 nm, the PDI [1] was 0.042 and the EE % [2] was 100%. The “EC50 Hek293F (ng/well)” value (HEK293F cells) was 0.22 ng/well and the “EC50 Hela (ng/well)” value (Hela cells) was 0.44 ng/well.

With CCCCCCCC(CCCCCCC)C(=O)OCC(COC(=O)C(CCCCCCC)CCCCCCC)N1CC2(CCN(CCCCO)CC2)C1 [Example 13, 2-(7-(4-hydroxybutyl)-2,7-diazaspiro[3.5]nonan-2-yl)propane-1,3-diyl bis(2-heptylnonanoate)] the “Size (nm)” value [1] was 131 nm, the PDI [1] was 0.086 and the EE % [2] was 99%. The “EC50 Hek293F (ng/well)” value (HEK293F cells) was 0.36 ng/well and the “EC50 Hela (ng/well)” value (Hela cells) was 1.6 ng/well.

For CCCCCCCC(CCCCCCC)C(=O)OCC(COC(=O)C(CCCCCCC)CCCCCCC)N1CCC2(CCN(CCCCO)CC2)C1 [Example 14, 2-(8-(4-hydroxybutyl)-2,8-diazaspiro[4.5]decan-2-yl)propane-1,3-diyl bis(2-heptylnonanoate)], the “Size (nm)” value [1] was 114 nm, the PDI [1] was 0.036 and the EE % [2] was 100%. For the same compound, the “EC50 Hek293F (ng/well)” value (HEK293F cells) was 1.5 ng/well and the “EC50 Hela (ng/well)” value (Hela cells) was 2.5 ng/well.

In the case of CCCCCCCCC(CCCCCC)C(=O)OCCC(CCOC(=O)C(CCCCCC)CCCCCCCC)N1CCC2(CCN(CCCCO)CC2)CC1 (centres unmarked) [Example 15, 3-(9-(4-hydroxybutyl)-3,9-diazaspiro[5.5]undecan-3-yl)pentane-1,5-diyl bis(2-hexyldecanoate)], the “Size (nm)” value [1] is reported as 110 nm, the PDI [1] is reported as 0.120 and the EE % [2] is reported as 100%. The “EC50 Hek293F (ng/well)” value (HEK293F cells) was 4.0 ng/well and the “EC50 Hela (ng/well)” value (Hela cells) was 2.7 ng/well.

In the case of CCCCCCCCC(CCCCCC)C(=O)OCC(COC(=O)C(CCCCCC)CCCCCCCC)N1CCC2(CCN(CCCCCO)C2)C1 (centres unmarked) [Example 16, 2-(7-(5-hydroxypentyl)-2,7-diazaspiro[4.4]nonan-2-yl)propane-1,3-diyl bis(2-hexyldecanoate)], the “Size (nm)” value [1] is reported as 134 nm, the PDI [1] is reported as 0.090 and the EE % [2] is reported as 99%. The “EC50 Hek293F (ng/well)” value (HEK293F cells) was 0.11 ng/well and the “EC50 Hela (ng/well)” value (Hela cells) was 0.18 ng/well.

For CCCCCCCCC(CCCCCC)C(=O)OCC(COC(=O)C(CCCCCC)CCCCCCCC)N1CCC2(CCN(CCCCCO)C2)CC1 (centres unmarked) [Example 17, 2-(2-(5-hydroxypentyl)-2,8-diazaspiro[4.5]decan-8-yl)propane-1,3-diyl bis(2-hexyldecanoate)], the “Size (nm)” value [1] was 149 nm, the PDI [1] was 0.053 and the EE % [2] was 100%. The “EC50 Hek293F (ng/well)” value (HEK293F cells) was 0.64 ng/well and the “EC50 Hela (ng/well)” value (Hela cells) was 1.3 ng/well.

With CCCCCCCC(CCCCCCC)C(=O)OCC(COC(=O)C(CCCCCCC)CCCCCCC)N1CC2(CCN(CCCCCO)CC2)C1 [Example 18, 2-(7-(5-hydroxypentyl)-2,7-diazaspiro[3.5]nonan-2-yl)propane-1,3-diyl bis(2-heptylnonanoate)] the “Size (nm)” value [1] was 149 nm, the PDI [1] was 0.060 and the EE % [2] was 99%. For the same compound, the “EC50 Hek293F (ng/well)” value (HEK293F cells) was 0.57 ng/well and the “EC50 Hela (ng/well)” value (Hela cells) was 1.4 ng/well.

In the case of CCCCCCCCC(CCCCCC)C(=O)OCCCC(COC(=O)C(CCCCCC)CCCCCCCC)N1CCC2(CCN(CCCCO)CC2)CC1 (centres unmarked) [Example 19, 2-(9-(4-hydroxybutyl)-3,9-diazaspiro[5.5]undecan-3-yl)pentane-1,5-diyl bis(2-hexyldecanoate)], the “Size (nm)” value [1] is reported as 153 nm, the PDI [1] is reported as 0.140 and the EE % [2] is reported as 99%. The “EC50 Hek293F (ng/well)” value (HEK293F cells) was 1.4 ng/well and the “EC50 Hela (ng/well)” value (Hela cells) was 0.89 ng/well.

In the case of CCCCCCCC(CCCCCCC)C(=O)OCC(COC(=O)C(CCCCCCC)CCCCCCC)N1CCC2(CC1)CN(CCCCO)C2 [Example 20, 2-(2-(4-hydroxybutyl)-2,7-diazaspiro[3.5]nonan-7-yl)propane-1,3-diyl bis(2-heptylnonanoate)], the “Size (nm)” value [1] is reported as 105 nm, the PDI [1] is reported as 0.073 and the EE % [2] is reported as 98%. The “EC50 Hek293F (ng/well)” value (HEK293F cells) was 0.22 ng/well and the “EC50 Hela (ng/well)” value (Hela cells) was 0.28 ng/well.

For CCCCCCCCC(CCCCCC)C(=O)OCC(COC(=O)C(CCCCCC)CCCCCCCC)N1CCC2(CCN(C(C)CCCO)CC2)CC1 (centres unmarked) [Example 21, 2-(9-(5-hydroxypentan-2-yl)-3,9-diazaspiro[5.5]undecan-3-yl)propane-1,3-diyl bis(2-hexyldecanoate)], the “Size (nm)” value [1] was 159 nm, the PDI [1] was 0.064 and the EE % [2] was 99%. For the same compound, the “EC50 Hek293F (ng/well)” value (HEK293F cells) was 0.28 ng/well and the “EC50 Hela (ng/well)” value (Hela cells) was 0.41 ng/well.

With CCCCCCCC(CCCCCCC)C(=O)OCC(COC(=O)C(CCCCCCC)CCCCCCC)N1CCC2(CCN(CCCCO)C2)CC1 [Example 22, 2-(2-(4-hydroxybutyl)-2,8-diazaspiro[4.5]decan-8-yl)propane-1,3-diyl bis(2-heptylnonanoate)] the “Size (nm)” value [1] was 107 nm, the PDI [1] was 0.065 and the EE % [2] was 99%. The “EC50 Hek293F (ng/well)” value (HEK293F cells) was 0.14 ng/well and the “EC50 Hela (ng/well)” value (Hela cells) was 0.39 ng/well.

In the case of CCCCCCCCC(CCCCCC)C(=O)OCC(COC(=O)C(CCCCCC)CCCCCCCC)N1CCC2(CCN(CCCCO)CC2)CC1 (centres unmarked) [Example 23, 2-(9-(4-hydroxybutyl)-3,9-diazaspiro[5.5]undecan-3-yl)propane-1,3-diyl bis(2-hexyldecanoate)], the “Size (nm)” value [1] is reported as 144 nm, the PDI [1] is reported as 0.090 and the EE % [2] is reported as 100%. The “EC50 Hek293F (ng/well)” value (HEK293F cells) was 0.47 ng/well and the “EC50 Hela (ng/well)” value (Hela cells) was 1.2 ng/well.
